Results published in patent US8778951B2, “Heteroaryl compounds and their uses” (Novartis AG, priority 2009, dated 2014).

Target: Cdk9/cyclinT1 (Homo sapiens (Human), UniProt P50750)
Assay: Cdk9/CyclinT1 IMAP Protocol (fluorescence polarization kinase assay)
Format: biochemical
Settings: Table 2; generated using one of the two Cdk9/cyclinT1 assays (IMAP or Alpha Screen), not specified which; unit inferred
Protocol: Cdk9/CyclinT1 IMAP Protocol
The biological activity of the compounds of the invention can be determined using the assay described below.
Cdk9/cyclinT1 is purchased from Millipore, cat #14-685. The final total protein concentration in the assay 4 nM. […] The final concentration of peptide substrate is 100 nM. The ATP substrate (Adenosine-5′-triphosphate) is purchased from Roche Diagnostics, cat#1140965. The final concentration of ATP substrate is 6 uM. IMAP (Immobilized Metal Assay for Phosphochemicals) Progressive Binding reagent is purchased from Molecular Devices, cat#R8139. Fluorescence polarization (FP) is used for detection. The 5TAMRA-cdk7tide peptide is phosphorylated by Cdk9/cyclinT1 kinase using the ATP substrate. The Phospho-5TAMRA-cdk7tide peptide substrate is bound to the IMAP Progressive Binding Reagent. The binding of the IMAP Progressive Binding Reagent changes the fluorescence polarization of the 5TAMRA-cdk7tide peptide which is measured at an excitation of 531 nm and FP emission of 595 nm. Assays are carried out in 100 mM Tris, pH=7.2, mM MgCl2, 0.05% NaN3, 0.01% Tween-20, 1 mM dithiothreitol and 2.5% dimethyl sulfoxide. IMAP Progressive Binding Reagent is diluted 1:800 in 100% 1× Solution A from Molecular Devices, cat#R7285.
General protocol is as follows: To 10 ul of cdk9/cyclinT1, 0.5 ul of test compound in dimethyl sulfoxide is added. 5TAMRA-cdk7tide and ATP are mixed. 10 ul of the 5TAMRA-cdk7tide/ATP mix is added to start the reaction. The reaction is allowed to proceed for 4.5 hrs. 60 uL of IMAP Progressive Binding Reagent is added. After >1 hr of incubation, plates are read on the Envision 2101 from Perkin-Elmer. The assay is run in a 384-well format using black Corning plates, cat#3573.

Cdk9/cyclinT1, sequence (P50750 whole entry): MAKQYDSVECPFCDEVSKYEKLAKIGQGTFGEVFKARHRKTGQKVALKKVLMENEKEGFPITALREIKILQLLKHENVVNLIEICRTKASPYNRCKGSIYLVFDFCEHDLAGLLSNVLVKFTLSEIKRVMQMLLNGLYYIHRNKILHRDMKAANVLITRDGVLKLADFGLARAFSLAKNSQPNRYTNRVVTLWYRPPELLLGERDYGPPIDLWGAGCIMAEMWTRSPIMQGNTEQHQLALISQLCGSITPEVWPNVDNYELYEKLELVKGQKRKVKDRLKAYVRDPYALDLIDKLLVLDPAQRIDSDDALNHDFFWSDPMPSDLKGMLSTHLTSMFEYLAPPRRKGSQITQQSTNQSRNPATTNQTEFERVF
Cdk9/cyclinT1, sequence (O60563 whole entry partner): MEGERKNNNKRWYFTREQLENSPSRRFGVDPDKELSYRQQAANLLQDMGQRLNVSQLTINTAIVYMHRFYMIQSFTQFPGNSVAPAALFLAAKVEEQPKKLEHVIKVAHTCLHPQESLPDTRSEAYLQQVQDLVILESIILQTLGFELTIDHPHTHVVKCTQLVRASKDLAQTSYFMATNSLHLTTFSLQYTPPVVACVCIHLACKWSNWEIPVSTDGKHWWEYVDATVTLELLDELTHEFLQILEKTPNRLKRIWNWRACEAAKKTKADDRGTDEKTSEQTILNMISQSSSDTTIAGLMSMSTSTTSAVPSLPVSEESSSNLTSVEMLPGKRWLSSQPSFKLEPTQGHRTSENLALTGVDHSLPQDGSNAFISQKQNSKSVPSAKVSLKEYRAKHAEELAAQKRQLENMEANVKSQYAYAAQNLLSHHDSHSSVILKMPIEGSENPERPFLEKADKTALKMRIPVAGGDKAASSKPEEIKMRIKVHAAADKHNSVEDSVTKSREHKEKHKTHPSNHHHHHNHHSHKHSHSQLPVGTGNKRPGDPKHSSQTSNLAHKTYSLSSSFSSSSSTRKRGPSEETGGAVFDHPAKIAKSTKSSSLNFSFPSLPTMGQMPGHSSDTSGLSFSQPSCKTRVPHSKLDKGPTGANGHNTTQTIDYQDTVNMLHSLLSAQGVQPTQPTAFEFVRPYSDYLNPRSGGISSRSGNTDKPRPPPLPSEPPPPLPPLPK

| IC50 [nM] | Molecule |
| --- | --- |
| 7.95 | NC[C@H]1CC[C@H](Nc2cc(-c3cccc(NCc4cccc(Cl)c4)n3)c(Cl)cn2)CC1 [Compound 62] |
| 28.4 | CN(CC1CCOCC1)c1cncc(-c2cc(N[C@H]3CC[C@H](O)CC3)ncc2Cl)n1 [Compound 250] |
| 19.4 | COCCCNc1cc(-c2cccc(NCc3cccc(F)c3)n2)c(Cl)cn1 [Compound 147] |
| 20.2 | CC(=O)NC[C@H]1CC[C@H](Nc2cc(-c3cncc(NCC4CCOCC4)n3)c(Cl)cn2)CC1 [Compound 247] |
| 54.6 | NC[C@H]1CC[C@H](Nc2cc(-c3cccc(NCc4cccc(OC(F)F)c4)n3)c(Cl)cn2)CC1 [Compound 64] |
| 1 | COC[C@@H](C)N[C@H]1CC[C@H](Nc2cc(-c3cccc(NCC4(CO)CCOCC4)n3)c(Cl)cn2)CC1 [Compound 349, (4-((5′-chloro-2′-(trans-4-((R)-1-methoxypropan-2-ylamino)cyclohexylamino)-2,4′-bipyridin-6-ylamino)methyl)tetrahydro-2H-pyran-4-yl)methanol] |
| 21 | Cc1cnc(N[C@H]2CC[C@H](N)CC2)cc1-c1cccc(NCc2cccc(F)c2)n1 [Compound 211, N2′-(trans-4-aminocyclohexyl)-N6-(3-fluorobenzyl)-5′-methyl-2,4′-bipyridine-2′,6-diamine] |
| 7.94 | COCCN[C@H]1CC[C@H](Nc2cc(-c3nc(NCC4CCOCC4)ccc3Cl)c(Cl)cn2)CC1 [Compound 258, 3,5′-dichloro-N2′-(trans-4-(2-methoxyethylamino)cyclohexyl)-N6-((tetrahydro-2H-pyran-4-yl)methyl)-2,4′-bipyridine-2′,6-diamine] |
| 7.94 | N[C@H]1CC[C@H](Nc2cc(-c3nc(NCC4CCOCC4)ccc3Cl)c(F)cn2)CC1 [Compound 260, N2′-(trans-4-aminocyclohexyl)-3-chloro-5′-fluoro-N6-((tetrahydro-2H-pyran-4-yl)methyl)-2,4′-bipyridine-2′,6-diamine] |
| 0.31 | CCCN(CCC)[C@H]1CC[C@H](Nc2cc(-c3ccc(F)c(NCC4(C#N)CCOCC4)n3)c(Cl)cn2)CC1 [Compound 343] |
| 7.94 | NCCCCNc1cc(-c2cccc(NCc3cc(F)cc(F)c3)n2)c(Cl)cn1 [Compound 188] |
| 10 | COC[C@@H](C)N[C@H]1CC[C@H](Nc2cc(-c3nc(NCC4CCCCO4)ccc3Cl)c(Cl)cn2)CC1 (stereo in doubt) [Compound 325, 3,5′-dichloro-N2′-(trans-4-((R)-1-methoxypropan-2-yl-amino)cyclohexyl)-N6-(((R)-tetrahydro-2H-pyran-2-yl)methyl)-2,4′-bipyridine-2′,6-diamine] |
| 24 | Fc1cccc(CNc2cccc(-c3cc(NCCc4cccnc4)ncc3Cl)n2)c1 [Compound 175] |
| 11 | CN1CCN([C@H]2CC[C@H](Nc3cc(-c4cccc(NCc5cccc(F)c5)n4)c(Cl)cn3)CC2)CC1 [Compound 158] |
| 19.2 | N[C@H]1CC[C@H](Nc2cc(-c3cccc(NCc4ccc(C(F)(F)F)cc4)n3)c(Cl)cn2)CC1 [Compound 52] |
| 7.95 | CS(=O)(=O)CCN[C@H]1CC[C@H](Nc2cc(-c3cccc(NCc4cccc(F)c4)n3)c(Cl)cn2)CC1 [Compound 20, 5′-chloro-N6-(3-fluorobenzyl)-N2′-(trans-4-(2-(methylsulfonyl)ethylamino)cyclohexyl)-2,4′-bipyridine-2′,6-diamine] |
| 7.94 | O[C@H]1CC[C@H](Nc2cc(-c3cncc(NCC4CCOCC4)n3)c(Cl)cn2)CC1 [Compound 208, trans-4-(5-chloro-4-(6-((tetrahydro-2H-pyran-4-yl)methyl)aminopyrazin-2-yl)pyridin-2-yl-amino)cyclohexanol] |
| 0.26 | N[C@H]1CC[C@H](Nc2cc(-c3nc(NCC4CCOCC4)c(F)cc3F)c(Cl)cn2)CC1 [Compound 318] |
| 7.95 | Nc1ncc(-c2cc(N[C@H]3CC[C@H](N)CC3)ncc2Cl)nc1NCC1CCOCC1 [Compound 226, 6-(2-(trans-4-aminocyclohexylamino)-5-chloropyridin-4-yl)-N2-((tetrahydro-2H-pyran-4-yl)methyl)pyrazine-2,3-diamine] |
| 7.95 | Fc1cccc(CNc2cccc(-c3cc(N[C@H]4CC[C@H](N5CCCCC5)CC4)ncc3Cl)n2)c1 [Compound 115] |
| 44 | CN1CCN(CCNc2cc(-c3cccc(NCc4cccc(F)c4)n3)c(Cl)cn2)CC1 [Compound 170] |
| 1 | COC[C@@H](C)N[C@H]1CC[C@H](Nc2cc(-c3ccc(C(F)(F)F)c(NCC4CCOCC4)n3)c(Cl)cn2)CC1 [Compound 308] |
| 7.95 | N[C@H]1CC[C@H](Nc2cc(-c3cccc(NCc4cncc(F)c4)n3)c(Cl)cn2)CC1 [Compound 38] |

| IC50 [nM] | Molecule |
| --- | --- |
| 141 | N[C@H]1CC[C@H](Nc2cc(-c3cccc(NC[C@H]4CCCO4)n3)c(Cl)cn2)CC1 [Compound 104] |
| 296 | Fc1cc(F)cc(CNc2cccc(-c3cc(N[C@@H]4CCCNC4)ncc3Cl)n2)c1 [Compound 92] |
| 2960 | Clc1cnc(N[C@@H]2CCCNC2)cc1-c1cccc(NCC2CCOCC2)n1 [Compound 90] |
| 139 | NCCCNc1cccc(-c2cc(N[C@H]3CC[C@H](O)CC3)ncc2Cl)n1 [Compound 118] |
| 48.1 | CO[C@H]1CC[C@H](Nc2cc(-c3cccc(NCc4cccc(F)c4)n3)c(Cl)cn2)CC1 [Compound 194] |
| 7.95 | N[C@H]1CC[C@H](Nc2cc(-c3cccc(NCc4cccc(C(F)(F)F)c4)n3)c(Cl)cn2)CC1 [Compound 47] |
| 10.6 | CN(CC1CCOCC1)c1cncc(-c2cc(N[C@H]3CC[C@H](N)CC3)ncc2Cl)n1 [Compound 248] |
| 121 | CC(C)CN1CCC(Nc2cc(-c3cccc(NCc4cccc(F)c4)n3)c(Cl)cn2)CC1 [Compound 102] |
| 9.13 | NC[C@H]1CC[C@H](Nc2cc(-c3cccc(NCc4cncc(F)c4)n3)c(Cl)cn2)CC1 [Compound 59] |
| 1 | CC1(C)CC(CNc2ccc(Cl)c(-c3cc(N[C@H]4CC[C@H](NC[C@@H](O)C(F)(F)F)CC4)ncc3Cl)n2)CCO1 (stereo partly shown) [Compound 299] |
| 1 | N[C@H]1CC[C@H](Nc2cc(-c3cccc(NCC4(F)CCOCC4)n3)c(Cl)cn2)CC1 [Compound 313, N2′-(trans-4-aminocyclohexyl)-5′-chloro-N6-((4-fluorotetrahydro-2H-pyran-4-yl)methyl)-2,4′-bipyridine-2′,6-diamine] |
| 22.7 | Fc1cccc(CNc2cccc(-c3cc(NCC4CCOCC4)ncc3Cl)n2)c1 [Compound 143] |
| 2 | O[C@@H](CN[C@H]1CC[C@H](Nc2cc(-c3nc(NCC4CCOCC4)ccc3Cl)c(Cl)cn2)CC1)C(F)(F)F [Compound 290] |
| 3 | FC(F)(F)OCCN[C@H]1CC[C@H](Nc2cc(-c3cccc(NCC4CCOCC4)n3)c(Cl)cn2)CC1 [Compound 301, 5′-chloro-N6-((tetrahydro-2H-pyran-4-yl)methyl)-N2′-(trans-4-(2-(trifluoromethoxy)ethylamino)cyclohexyl)-2,4′-bipyridine-2′,6-diamine] |
| 25.6 | Fc1cccc(CNc2cccc(-c3cc(NC4CCOCC4)ncc3Cl)n2)c1 [Compound 142] |
| 7.95 | N[C@H]1CC[C@H](Nc2cc(-c3cncc(NCc4cccc(F)c4)n3)c(Cl)cn2)CC1 [Compound 101] |
| 7.95 | N[C@H]1CC[C@H](Nc2cc(-c3cccc(NCc4cccc(Cl)c4)n3)c(Cl)cn2)CC1 [Compound 37] |
| 7.94 | OCCN[C@H]1CC[C@H](Nc2cc(-c3nc(NCC4CCOCC4)ccc3Cl)c(Cl)cn2)CC1 [Compound 259, 2-(trans-4-(3,5′-dichloro-6-((tetrahydro-2H-pyran-4-yl)methyl)amino-2,4′-bipyridin-2′-yl-amino)cyclohexylamino)ethanol] |
| 1 | CC1(CNc2nc(-c3cc(NC4CCC(NC5CS(=O)(=O)C5)CC4)ncc3Cl)ccc2F)CCOCC1 (stereo not shown) [Compound 347] |
| 13 | CN1CCC(CNc2cc(-c3cccc(NCc4cccc(F)c4)n3)c(Cl)cn2)CC1 [Compound 163] |
| 7.95 | N[C@H]1CC[C@H](Nc2cc(-c3cccc(NCc4ccc(Cl)cc4)n3)c(Cl)cn2)CC1 [Compound 55] |
| 2550 | CC(C)(C)OC(=O)N1CCC(Nc2cc(-c3cccc(NCc4cccc(F)c4)n3)c(Cl)cn2)CC1 [Compound 67] |
| 274 | Clc1cnc(NC2CCNCC2)cc1-c1cccc(NCC2CCCCC2)n1 [Compound 68] |

| Molecule | IC50 [nM] |
| --- | --- |
| Fc1cccc(CNc2cncc(-c3ccnc(N[C@H]4CC[C@H](NCc5ccccc5)CC4)c3)n2)c1 [Compound 10, trans-N1-benzyl-N4-(4-(6-(3-fluorobenzylamino)pyrazin-2-yl)pyridin-2-yl)cyclohexane-1,4-diamine] | 18.6 |
| (S)-3-(trans-4-(3,5′-dichloro-6-((tetrahydro-2H-pyran-4-yl)methyl)amino-2,4′-bipyridin-2′-yl-amino)cyclohexylamino)-1,1,1-trifluoropropan-2-ol [Compound 289] | 4 |
| N[C@H]1CC[C@H](Nc2cc(-c3cccc(NCc4ccncc4)n3)ccn2)CC1 [Compound 33] | 27 |
